Data as given in patent US20250282779A1, “SUBSTITUTED 5,6,7,8-TETRAHYDROPYRIDO[2,3-D]PYRIMIDINE-2,4-DIONES FOR TREATING CARDIAC DISEASES” (MYOKARDIA, INC., priority 2018, published 2025).

Tests used:
bovine cardiac myosin [1] = molecular target: T1, bovine cardiac myosin (Bos taurus (Bovine), UniProt Q9BE39); assay: Myosin inhibition assay (bcMF pCa 6 IC50); assay type: biochemical; settings: bovine cardiac myofibrils, calcium giving 50% activation
Experimental: Myosin inhibition assay (bcMF pCa 6IC50 (μM))
Small molecule agents were assessed for their ability to inhibit the enzymatic activity of bovine cardiac myosin using a biochemical assay that couples the release of ADP (adenosine diphosphate) from cardiac myosin to an enzymatic coupling system consisting of pyruvate kinase and lactate dehydrogenase (PK/LDH) and monitoring the absorbance decrease of NADH (at 340 nm) as a function of time. PK converts ADP to ATP (adenosine triphosphate) by converting PEP (phosphoenolpyruvate) to pyruvate. Pyruvate is then converted to lactate by LDH by converting NADH (nicotinamide adenine dinucleotide) to NAD (oxidized nicotinamide adenine dinucleotide). The source of cardiac myosin was from bovine heart in the form of skinned myofibrils. Prior to testing small molecule agents, the bovine myofibrils were assessed for their calcium responsiveness and the calcium concentration that achieves a 50% activation of the myofibril system was chosen as the final condition for assessing the inhibitory activity of the small molecule agents. All enzymatic activity was measured in a buffered solution containing 12 mM PIPES (piperazine-N,N′-bis(2-ethanesulfonic acid), 2 mM magnesium chloride at pH 6.8 (PM12 buffer). Final assay conditions were 1 mg/mL of bovine cardiac myofibrils, 0.4 mM PK/LDH, 50 uM ATP, 0.1 mg/mL BSA (bovine serum albumin), 10 ppm antifoam, 2 mM BME, 0.5 mM NADH, and 1.5 mM PEP at the desired free calcium concentration required to achieve 50% activation of the myofibrils.
A dilution series of compound was created in DMSO such that the final desired concentration of compound would be achieved in a volume of 30 μL with a fixed DMSO concentration of 3.3% (v/v). Typically 1 μL of the dilution series were added to 384 well plate to achieve a 10 point dose response. Following the addition of 14 μL of a solution containing bovine cardiac myofibrils, PK/LDH and a solution of calcium (that achieved 50% activation), the enzymatic reaction was started with the addition of 15 μL of a solution containing ATP, PEP and NADH. The reaction progress was followed in a PerkinElmer Envision plate reader at ambient temperature using clear bottom plates. The plate reader was configured to read absorbance at 340 nm in kinetics mode for 15 minutes. Data were recorded as the slope of the absorbance response to time. The slopes of the absorbance response as a function of time were normalized to slopes on the plate containing DMSO. This normalized rate was then plotted as a function of small molecule concentration and the data was fitted to a four-parameter fit using EXCEL XLfit. The IC50 is the concentration at which fifty percent of the total response is inhibited.

bovine cardiac myosin [2] = molecular target: T1, bovine cardiac myosin; assay: Myosin inhibition assay (bcMF serum pCa 6 IC50), 10% human serum; assay type: biochemical; settings: in the presence of 10% human serum
Source text: Myosin Inhibition Assay (bcMF Serum pCa 6 IC50 (μM))
Inhibition of the enzymatic activity of bovine cardiac myosin associated with the release of ADP (adenosine diphosphate) at the calcium concentrate that achieves a 50% activation of the bovine cardiac myofibril system in the presence of 10% human serum. The procedure was the same as that bovin cardiac myosin inhibition assay (bcMF pCa 6 IC50 (μM)) but with the addition of 10% human serum.

rabbit skeletal myosin = assay: Myosin inhibition assay (rbskMF pCa 6 IC50); assay type: biochemical; settings: cardiac vs rabbit skeletal myofibrils
Source text: Myosin inhibition assay (rbskMF pCa 6 IC50 (μM))
Inhibition of the enzymatic activity of rabbit skeletal myosin associated with the release of ADP (adenosine diphosphate) at the calcium concentrate that achieves a 50% activation of the rabbit skeletal myofibril system. The procedure was the same as that of bovin cardiac myosin inhibition assay (bcMF pCa 6 IC50 (μM)) by replacing bovine cardiac myofibril with rabbit skeletal myofibril.

[3] = Reactive metabolite identification (glutathione adducts); assay type: in vitro ADME, human
Experimental: Reactive Metabolite Identification
In vitro determination of reactive metabolite formation for small molecules by detection of glutathione adducts formed in vitro in incubations with human liver microsomes fortified with NADPH and glutathione.
Methods: The metabolism of small molecules (30 μM) for glutathione adduct formation was assessed in incubations (200 μL volume, […], 60 min incubation time) with liver microsomes from human (1 mg/mL protein) conducted in potassium phosphate buffer (0.1 M, pH 7.4) for 1 h at 37° C. in a 96-well plate (2 mL well volume) and were performed in the absence of NADPH (used as a negative control) and in the presence of NADPH (1 mM) and glutathione (GSH, 10 mM). Incubations with liver microsomes were performed in a shaking water bath incubator with slow horizontal shaking (30 rpm). To obtain 30 μM incubation concentration of a compound, a 3 mM substrate stock solution in DMSO was used. Final incubation mixtures contained 148 μL of potassium phosphate buffer, 10 μL of liver microsome solution (20 mg protein/mL), 2 μL of the 3 mM substrate solution and where incubations were initiated by the addition of 40 μL of NADPH solution (5 mM dissolved in potassium phosphate buffer). Non-NADPH containing incubations were supplemented with 40 μL of potassium phosphate buffer. Post-incubation, reactions were terminated by adding an equal volume of acetonitrile containing 20 nM carbamazepine internal standard and 3% formic acid. Quenched samples then were centrifuged (4,600 rpm, 4° C., 10-min) after which the supernatants were transferred to a 96-well LC-MS sample analysis plate and diluted with one volume equivalent of HPLC-grade water, and then heat sealed with aluminum foil prior to analysis by liquid chromatography/mass spectrometry (LC-MS/MS).
Analyte identification: The LC-MS/MS detection (with in-line UV detection at 280 nm) of test compounds and potential GSH-adducts was focused on extracting selected ion chromatographic profiles using the protonated molecular ion MH^+ m/z for parent to 4 decimal places, and corresponding protonated molecular ions of predicted GSH-adduct metabolites (m/z MH^+ parent+305.0681 amu) using Xcalibur software (version 2.1.0, Thermo Fisher Scientific, Waltham, MA). Relative GSH-adduct abundance in vitro in liver microsome extracts was assessed using the LC/UV absorbance at 280 nm peak area ratio obtained by using Xcalibur software (version 2.1.0) between the detected GSH-adducts from NADPH- and GSH-fortified incubation extracts and the corresponding LC/UV peak area of the parent compound from minus NADPH containing incubation extracts. The extent of GSH-adduct formation was determined by LC-MS/MS analysis with in-line LC-UV detection at 280 nm by dividing the glutathione-adduct LC/UV peak area by the LC/UV peak area of the corresponding parent HCM-1 NG analog determined from analysis of control (-NAPDH, -GSH) incubations extracts.
Materials: Pooled male human (HLM, 50 donors) liver microsomes were obtained from Bioreclamation IVT (Baltimore, MD). Glutathione (GSH) and NADPH were purchased from Sigma Chemical Co. (St. Louis, MO). All solvents used for liquid chromatography-tandem mass spectrometry (LC-MS/MS) analyses were of chromatographic grade.
LC-MS Conditions: Extracts from incubations with liver microsomes and hepatocytes were characterized by LC-MS and LC-MS/MS on a Thermo Electron LTQ Orbitrap XL mass spectrometer coupled with a Dionex UltiMate 3000 UHPLC containing in-line diode array detection and an OAS-3300TXRS Autosampler (40 μL injection volume). Electrospray ionization (ESI) was employed in the positive ion mode with the needle potential held at 5.01 kV, a sheath flow rate of 35.02, aux flow rate of 9.99, a current of 2.6 uA, a capillary temperature of 325° C., and a capillary voltage of 15.99. Vacuum conditions used were an ion gauge pressure used was 2.33×10^−5 Torr and a convection gauge pressure of 0.90 Torr. […]

T1 sequence (Q9BE39 whole entry): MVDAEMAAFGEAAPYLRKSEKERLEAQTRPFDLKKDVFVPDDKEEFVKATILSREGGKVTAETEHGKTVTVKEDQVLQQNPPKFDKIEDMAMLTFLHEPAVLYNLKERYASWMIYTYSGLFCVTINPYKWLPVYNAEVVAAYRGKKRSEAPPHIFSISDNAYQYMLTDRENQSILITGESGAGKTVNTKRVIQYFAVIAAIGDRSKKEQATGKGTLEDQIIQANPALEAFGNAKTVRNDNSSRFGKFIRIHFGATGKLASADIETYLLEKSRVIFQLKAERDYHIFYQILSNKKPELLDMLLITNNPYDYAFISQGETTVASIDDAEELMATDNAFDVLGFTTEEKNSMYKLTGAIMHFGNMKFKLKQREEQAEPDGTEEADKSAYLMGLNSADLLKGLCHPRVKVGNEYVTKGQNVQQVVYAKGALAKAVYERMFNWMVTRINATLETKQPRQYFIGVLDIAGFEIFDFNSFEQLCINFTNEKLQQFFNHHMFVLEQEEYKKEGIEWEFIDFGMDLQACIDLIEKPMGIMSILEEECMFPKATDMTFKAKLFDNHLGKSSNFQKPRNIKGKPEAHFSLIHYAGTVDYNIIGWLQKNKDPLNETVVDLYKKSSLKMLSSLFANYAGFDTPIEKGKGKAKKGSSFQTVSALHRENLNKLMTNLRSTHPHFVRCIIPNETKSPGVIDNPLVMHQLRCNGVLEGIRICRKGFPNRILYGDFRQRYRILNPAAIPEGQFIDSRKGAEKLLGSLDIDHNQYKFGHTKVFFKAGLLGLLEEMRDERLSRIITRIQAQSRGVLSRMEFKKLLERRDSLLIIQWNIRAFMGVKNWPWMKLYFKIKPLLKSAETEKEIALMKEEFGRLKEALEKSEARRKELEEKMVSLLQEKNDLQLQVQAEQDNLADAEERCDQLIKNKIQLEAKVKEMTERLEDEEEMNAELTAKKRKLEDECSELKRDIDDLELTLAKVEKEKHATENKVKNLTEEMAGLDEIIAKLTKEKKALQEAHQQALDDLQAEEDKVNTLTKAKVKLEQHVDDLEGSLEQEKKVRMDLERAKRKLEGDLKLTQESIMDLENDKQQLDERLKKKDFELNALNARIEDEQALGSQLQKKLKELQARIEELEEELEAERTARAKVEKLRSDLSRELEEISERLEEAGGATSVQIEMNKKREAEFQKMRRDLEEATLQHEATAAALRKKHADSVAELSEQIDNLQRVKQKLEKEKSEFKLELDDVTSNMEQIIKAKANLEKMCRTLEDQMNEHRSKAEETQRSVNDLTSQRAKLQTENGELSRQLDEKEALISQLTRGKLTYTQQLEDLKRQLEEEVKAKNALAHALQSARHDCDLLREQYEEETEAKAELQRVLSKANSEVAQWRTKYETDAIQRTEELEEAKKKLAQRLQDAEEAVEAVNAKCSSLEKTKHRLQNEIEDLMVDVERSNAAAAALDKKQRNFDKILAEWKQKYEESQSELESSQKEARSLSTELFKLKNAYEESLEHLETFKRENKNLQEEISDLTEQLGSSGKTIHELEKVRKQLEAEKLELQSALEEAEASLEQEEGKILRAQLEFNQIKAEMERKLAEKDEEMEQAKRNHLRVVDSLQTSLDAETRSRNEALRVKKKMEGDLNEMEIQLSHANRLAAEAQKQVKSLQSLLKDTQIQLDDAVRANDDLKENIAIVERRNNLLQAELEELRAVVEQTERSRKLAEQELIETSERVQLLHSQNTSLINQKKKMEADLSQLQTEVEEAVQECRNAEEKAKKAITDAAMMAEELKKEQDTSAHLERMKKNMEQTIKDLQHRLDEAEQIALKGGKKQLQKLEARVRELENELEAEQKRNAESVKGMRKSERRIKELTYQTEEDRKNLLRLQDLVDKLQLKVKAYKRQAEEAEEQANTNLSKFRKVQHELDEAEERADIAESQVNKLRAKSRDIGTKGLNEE
T1 sequence (P85100 whole entry partner): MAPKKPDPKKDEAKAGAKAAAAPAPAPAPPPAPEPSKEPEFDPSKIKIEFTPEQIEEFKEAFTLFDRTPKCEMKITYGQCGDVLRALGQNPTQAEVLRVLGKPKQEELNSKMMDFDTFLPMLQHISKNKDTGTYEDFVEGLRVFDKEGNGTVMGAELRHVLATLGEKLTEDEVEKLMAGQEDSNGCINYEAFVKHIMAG
T1 sequence (Q3SZE5 whole entry partner): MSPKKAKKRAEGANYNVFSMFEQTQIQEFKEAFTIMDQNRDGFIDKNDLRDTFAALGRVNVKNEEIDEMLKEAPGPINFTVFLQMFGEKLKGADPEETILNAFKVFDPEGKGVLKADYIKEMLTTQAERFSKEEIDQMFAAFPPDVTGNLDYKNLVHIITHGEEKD

| Compound | IC50 (bovine cardiac myosin [1]; read-out: bcMF pCa_6 IC50 MEAN) [µM] | IC50 (bovine cardiac myosin [1]; read-out: bcMF pCa 6 IC50) [µM] | IC50 (bovine cardiac myosin [2]) [µM] | Cardiac selectivity ratio vs rbskMF pCa 6 IC50 (rabbit skeletal myosin) | % GSH-adduct (+NADPH, +GSH) relative to parent (−NADPH, −GSH) ([3]; human liver microsomes, 30 μM, 60 min) | Glutathione Adduct Detection in Human Liver Microsome Incubations (single measurement) [3] | Glutathione Adduct Detection in Human Liver Microsome Incubations, Average (triple measurements) [3] |
| --- | --- | --- | --- | --- | --- | --- | --- |
| O=c1[nH]c2c(c(=O)n1C1CCOCC1)C[C@H](F)[C@H](c1cc(CO)ccc1F)N2 | 0.78 |  |  |  |  |  |  |
| O=c1[nH]c2c(c(=O)n1C1CCOCC1)C[C@H](F)[C@H](c1cccc(F)c1)N2 [Compound 1, (6S,7S)-6-fluoro-7-(3-fluorophenyl)-3-(tetrahydro-2H-pyran-4-yl)-5,6,7,8-tetrahydropyrido[2,3-d]pyrimidine-2, 4(1H, 3H)-dione] | 3.03 | 3.03 | 3.7 | 7.38 | Not Detected | Not Detected | Not Detected |
| O=c1[nH]c2c(c(=O)n1C1CCOCC1)C[C@@H](F)[C@H](c1cccc(F)c1)N2 [Compound 2, (6R,7S)-6-fluoro-7-(3-fluorophenyl)-3-(tetrahydro-2H-pyran-4-yl)-5,6,7,8-tetrahydropyrido[2,3-d]pyrimidine-2,4(1H, 3H)-dione] | 2.13 | 2.13 | 3.11 | 10.71 |  | Not Detected | Not Detected |
| Cc1ccc(F)c([C@@H]2Nc3[nH]c(=O)n(C4CCOCC4)c(=O)c3C[C@H]2F)c1 [Compound 4, (6R,7S)-6-fluoro-7-(2-fluoro-5-methylphenyl)-3-(tetrahydro-2H-pyran-4-yl)-5,6,7,8-tetrahydropyrido[2,3-d]pyrimidine-2,4(1H, 3H)-dione] | 0.37 |  |  |  |  | Not Detected | Not Detected |
| Cc1ccc(F)c([C@H]2Nc3[nH]c(=O)n(C4CCOCC4)c(=O)c3C[C@H]2F)c1 [Compound 5, (6R,7R)-6-fluoro-7-(2-fluoro-5-methylphenyl)-3-(tetrahydro-2H-pyran-4-yl)-5,6,7,8-tetrahydropyrido[2,3-d]pyrimidine-2,4(1H, 3H)-dione] | 20.8 |  |  |  |  | Not Detected | Not Detected |
| Cc1ccc(F)c([C@H]2Nc3[nH]c(=O)n(C4CCOCC4)c(=O)c3C[C@@H]2F)c1 [Compound 6, (6S,7R)-6-fluoro-7-(2-fluoro-5-methylphenyl)-3-(tetrahydro-2H-pyran-4-yl)-5,6,7,8-tetrahydropyrido[2,3-d]pyrimidine-2,4(1H,3H)-dione] | 26.4 |  |  |  |  | Not Detected | Not Detected |
| C#Cc1ccc(F)c([C@@H]2Nc3[nH]c(=O)n(C4CCOCC4)c(=O)c3C[C@@H]2F)c1 [Compound 7] | 0.54 |  |  |  |  |  |  |
| O=c1[nH]c2c(c(=O)n1C1CCOCC1)C[C@@H](F)[C@H](c1ccccc1F)N2 [Compound 8] | 1.46 |  |  |  |  | Not Detected | Not Detected |
| O=c1[nH]c2c(c(=O)n1C1CCOCC1)C[C@H](F)[C@H](c1ccccc1F)N2 [Compound 9] | 5.59 |  |  |  |  | Not Detected | Not Detected |
| COc1ccc(F)c([C@@H]2Nc3[nH]c(=O)n(C4CCOCC4)c(=O)c3C[C@@H]2F)c1 [Compound 10] | 1.02 |  |  |  |  | Not Detected | Not Detected |
| COc1ccc(F)c([C@@H]2Nc3[nH]c(=O)n(C4CCOCC4)c(=O)c3C[C@H]2F)c1 [Compound 11] | 0.49 |  |  |  |  | Not Detected | Not Detected |
| O=c1[nH]c2c(c(=O)n1C1CCOCC1)C[C@@H](F)[C@@H](c1cccc(F)c1)N2 [Compound 12] | 23.2 |  |  |  |  | Not Detected | Not Detected |
